Test results reported in patent CN106420773A, “一种治疗放射性肠炎的中西药组合物及其制备方法和应用” (Zhengzhou Lidiya Medicine Technology Co Ltd, priority 2016, dated 2017).

Assay: Clinical trial in patients receiving pelvic radiotherapy (radiation enteritis)
Format: in vivo, human
Details: once daily, 10 days, with conventional radiotherapy
[1] = number of patients of 50 per group

SMILES: CC(O)C(=O)[O-].CC(O)C(=O)[O-].[Ca+2] (stereo not shown) [对比例2, 乳酸钙]
- total effective rate (50 patients per group): 4%
- cured [1]: 0
- improved [1]: 2
- ineffective [1]: 48
